Laboratory results taken from patent US9376665B2, “Method for producing intestinal cells” (National University Corporation Kumamoto University, priority 2010, dated 2016).

Assays:
mouse ES cells [1] = assay: Intestinal differentiation of mouse ES cells on M15 cells; marker expression by PCR and immunohistochemistry; format: cell-based; conditions: quantitative PCR, BIO or DAPT added alone after definitive endoderm induction, Day 20 (d20)
Experimental: In this example, a cell line R1 was used as mouse ES cells. The cell line R1 was maintained on mouse embryonic fibroblast (MEF) feeders in 2000 mg/L-glucose-containing DMEM supplemented with Leukemia Inhibitory Factor (LIF), 10% fetal bovine serum (FBS), 100 μM of non-essential amino acids (NEAA), 2 mM of L-Gln, 50 units/mL of penicillin and 50 μg/mL of streptomycin (PS), and 100 μM β-mercaptoethanol.
(§1) The ES cells were culture on M15 cells added with 20 ng/mL of activin and 50 ng/mL of bFGF in DMEM medium containing 10% fetal bovine sera and […] of glucose for 5 days, and were analyzed using flow cytometry for definitive endoderm. For intestinal differentiation, the ES cells were further cultured on M15 or MEF cells, in the presence of BIO and DAPT, or without BIO and DAPT but with FGFs, in media with 10% KSR at a glucose concentration of 2000 mg/mL.
RNA was extracted from the ES cells using TRI Reagent (Sigma) or RNeasy micro-kit (Qiagen), and then, was treated with DNase (Sigma). Three micrograms of RNA were reverse-transcribed using a MMLV reverse transcriptase (Toyobo) and oligo dT primers (Toyobo). […]

[2] = system: definitive endoderm cells; assay: Re-culture of sorted ES cell-derived definitive endoderm cells on feeder cells with BIO and DAPT; marker expression; format: cell-based, mouse
Experimental: as §1
The cells were dissociated with Cell Dissociation Buffer (Invitrogen), adjusted to 1×10^6 cells/50 μL, and stained with appropriate antibodies. A biotin- or Alexa 488-conjugated anti-E-cadherin monoclonal antibody ECCD2, and a phycoerythrin (PE)-conjugated anti-Cxcr4 mAb 2B11 (BD Pharmingen) were used as the antibodies. The stained cells were purified with FACS Aria (BD Pharmingen). Data were recorded using the BD FACSDiva Software program (BD Pharmingen), and were analyzed using the Flowjo program (Tree Star).
(§2) RNA was extracted from the ES cells using TRI Reagent (Sigma) or RNeasy micro-kit (Qiagen), and then, was treated with DNase (Sigma). Three micrograms of RNA were reverse-transcribed using a MMLV reverse transcriptase (Toyobo) and oligo dT primers (Toyobo). The PCR conditions for each cycle include initial denaturation at 96° C. for one minute, and the second and subsequent cycles of denaturation at 96° C. for 30 seconds, annealing at 60° C. for 2 seconds and extension at 72° C. for 20 seconds, and the final cycle of extension at 72° C. for 7 minutes. RT-PCR products were separated by 5% non-denaturing polyacrylamide gel electrophoresis, stained with SYBR Green I (Molecular Probes), and visualized using Gel Logic 200 Imaging System (Kodak).

mouse ES cells [3] = assay: Test Example 2: addition of various activators, proportion of Cdx2-positive cells by flow cytometry, feeder-free; format: cell-based; conditions: for efficiency of differentiation, BMP4 or SAG added besides FGF2: 15th day of cultivation, with BIO and DAPT
Experimental: Therefore, next, an experiment in which the FGF signaling, the BMP signaling and the Hh signaling were activated was carried out. In view of micro-array data showing that MEF cells express FGF2 and BMP4, 50 ng/mL of FGF2 (PEPROTECH) and 25 ng/mL of BMP4 (R&D Systems) were used to activate the FGF signaling and the BMP signaling. Furthermore, as to activation of the Hh signaling, 300 nM of SAG (MERCK) (smoothend agonist; smo) was used.
For the experiment of inducing the differentiation, the induction of differentiation was carried out in a feeder-free system as described below. First, mouse ES cells were plated on a gelatin-coated dish at 6,900 cells/cm^2. The ES cells were cultured for 7 days in DMEM medium (Dulbecco's Modified Eagle Medium) (Invitrogen, Glasgow, UK) containing 4,500 mg/L of glucose, supplemented with NEAA, L-Gln, PS, β-ME, 10 μg/mL of Insulin (Sigma-Aldrich), […] of Transferin (Sigma-Aldrich), 6.7 pg/mL of Selenium (Sigma-Aldrich), 0.25% AlbuMax (Invitrogen), and 10 ng/mL of recombinant human activin A (R&D Systems, Minneapolis, Minn.), and then, the culture medium was replaced with 10% KSR containing 2,000 mg/mL of glucose, BIO (5 μM) and DAPT (10 μM) and further supplemented with the activator or growth factor. After that, cell culturing was further continued, the cells were separated on the 10th day and the 15th day of cultivation as described in Example 1, and then, the proportion of Cdx2-positive cells was evaluated by use of flow cytometry. The flow cytometry (FACS) analysis was carried out using BD Cytofix/Cytoperm™ Kit (BD Biosciences) in accordance with a manual provided by the manufacturer.

ES cells = assay: Effect of signalling inhibitors on intestinal differentiation by BIO and DAPT (Cdx2 RT-PCR and immunohistochemistry); format: cell-based, mouse; conditions: inhibitor added with BIO and DAPT on MEF cells; RT-PCR and anti-Cdx2 immunohistochemistry, day 12
Experimental: Definitive endoderms were sorted from ES cells which had been cultured on M15 cells with activin and bFGF for 4 days, and the sorted cells were re-plated on MEF cells.
10 μg/mL of human bFGF (Peprotech), U0126 (Sigma), LY294002 (Calbiochem), and SU5402 (Calbiochem), respectively;

mouse ES cells [4] = assay: Test Example 1: addition of various inhibitors, Cdx2 expression by real-time PCR; format: cell-based; conditions: inhibitor plus BIO (5 μM) and DAPT (10 μM) on MEF cells for 8 days (12th day of cultivation), Noggin 500 ng/mL, Dorsomorphin 200 nM, KAAD-Cyclopamine 250 nM
Experimental: In order to clarify what mechanism induces the intestinal differentiation in a case where mouse ES cells are used as a starting material, inhibitors against various signal transduction systems were added besides BIO and DAPT, and conditions in which expression of an intestinal marker Cdx2 decreases were evaluated.
As an inhibitor, 500 ng/mL of Noggin (R&D systems) or 200 nM of Dorsomorphin (SIGMA-ALDRICH), which is a BMP-signaling inhibitor; 1 μM of LE540 (Wako), which is a retinoic-acid-signaling inhibitor; 250 nM of KAAD-Cyclopamine (Calbiochem), which is a hedgehog-signaling inhibitor; or 10 μM of AMD3100 (SIGMA-ALDRICH), which is a Cxcr4 inhibitor, was added thereto. […] After that, the above-sorted definitive endoderm cells were cultured in the presence of BIO (5 μM) and DAPT (10 μM) as well as the above-mentioned inhibitor for 8 days (until the 12th day of cultivation) in accordance with the method described in Example 1, RNAs were extracted from the cells by the method described in Example 1, and expression of the Cdx2 gene, namely an intestinal marker, was analyzed by real-time PCR. The real-time PCR was carried out by use of the primer pairs used in Example 1 (see Table 1), Thunderbird SYBR qPCR mix (Toyobo), and 7500 Fast Real-Time PCR system (ABI Company).

[5] = system: definitive endoderm cells; assay: Effects of FGFs on intestinal differentiation of definitive endoderm cells (RT-PCR, Cdx2 immunohistochemistry); format: cell-based, mouse; conditions: FGFs added from Day 4 of the differentiation, on MEF cells; immunohistochemistry on day 12
Experimental: as §1
256 ng/mL of FGF2 (human bFGF) (Peprotech); and
50 ng/mL of FGF4 (Peprotech), FGF5 (Sigma), FGF7 (R&D Systems), FGF8 (Cosmo Bio), FGF9 (Peprotech), FGF10 (R&D Systems) and FGF18 (Sigma), respectively.
as §2

[6] = high BIO concentration with DAPT (10 μM)
[7] = high concentration of DAPT in the presence of BIO (5 μM)

## O=C1Nc2cc(Br)ccc2/C1=C1/Nc2ccccc2/C1=N\O [BIO, (2′Z,3′E)-6-bromoindirubin-3′-oxime]
Mouse ES cells [1]
  expression of Intestinal fatty acid binding protein (Ifabp): induced expression
[2]; [6]
  Hoxc8: turning on
  Pax8: turned off

## C[C@H](NC(=O)Cc1cc(F)cc(F)c1)C(=O)N[C@H](C(=O)OC(C)(C)C)c1ccccc1 [DAPT, N-[(3,5-difluorophenyl)acetyl]-L-Ala-2-phenyl-L-Gly-tert-butyl-OH]
Mouse ES cells [1]
  expression of Intestinal fatty acid binding protein (Ifabp): induced expression
[2]; [7]
  anterior marker Pax8: turned off
  posterior marker Hoxc8: inducing

## CNC1CCC(N(Cc2cccc(-c3ccncc3)c2)C(=O)c2sc3ccccc3c2Cl)CC1 (stereo not drawn) [SAG, N-Methyl-N′-(3-pyridinylbenzyl)-N′-(3-chlorobenzo[b]thiophene-2-carbonyl)-1,4-diaminocyclohexane, reference compound]
Mouse ES cells [3]; 10th day of cultivation, FGF2 50 ng/mL or SAG 300 nM added besides BIO and DAPT
  number of Cdx2-positive cells versus control (only BIO and DAPT): decrease
Mouse ES cells [3]
  efficiency of differentiation, BMP4 or SAG added besides FGF2: yet more efficiently differentiate

## Cc1c[nH]c(/C=C2\C(=O)Nc3ccccc32)c1CCC(=O)O [SU5402]
ES cells
  intestinal differentiation mediated by BIO and DAPT (Cdx2 expression): partially inhibited

## N#CC(=C(/N)Sc1ccccc1N)/C(C#N)=C(\N)Sc1ccccc1N [U0126]
ES cells
  intestinal differentiation mediated by BIO and DAPT (Cdx2 expression): not inhibited

## KAAD-Cyclopamine [reference compound]
Mouse ES cells [4]
  expression of Cdx2: lowered

B1: FGF18: FGF18 (Sigma), growth factor (protein, UniProt O76093 28-207, looked up)
Fibroblast growth factor 18: EENVDFRIHVENQTRARDDVSRKQLRLYQLYSRTSGKHIQVLGRRISARGEDGDKYAQLLVETDTFGSQVRIKGKETEFYLCMNRKGKLVGKPDGTSKECVFIEKVLENNYTALMSAKYSGWYVGFTKKGRPRKGPKTRENQQDVHFMKRYPKGQPELQKPFKYTTVTKRSRRIRPTHPA
[5]
  induction of Cdx2-expressing intestinal cells: induced intestinal differentiation of ES cells, but the levels thereof were lower

B2: Noggin: Noggin (R&D systems), a BMP-signaling inhibitor (protein, UniProt Q13253 28-232, looked up)
Noggin: QHYLHIRPAPSDNLPLVDLIEHPDPIFDPKEKDLNETLLRSLLGGHYDPGFMATSPPEDRPGGGGGAAGGAEDLAELDQLLRQRPSGAMPSEIKGLEFSEGLAQGKKQRLSKKLRRKLQMWLWSQTFCPVLYAWNDLGSRFWPRYVKVGSCFSKRSCSVPEGMVCKPSKSVHLTVLRWRCQRRGGQRCGWIPIQYPIISECKCSC
Mouse ES cells [4]
  expression of Cdx2: lowered

B3: FGF7: FGF7 (R&D Systems), growth factor (protein, UniProt P21781 32-194, looked up)
Fibroblast growth factor 7: CNDMTPEQMATNVNCSSPERHTRSYDYMEGGDIRVRRLFCRTQWYLRIDKRGKVKGTQEMKNNYNIMEIRTVAVGIVAIKGVESEFYLAMNKEGKLYAKKECNEDCNFKELILENHYNTYASAKWTHNGGEMFVALNQKGIPVRGKKTKKEQKTAHFLPMAIT
[5]
  induction of Cdx2-expressing intestinal cells: induced intestinal differentiation of ES cells, but the levels thereof were lower

B4: BMP4: BMP4 (R&D Systems), activates the BMP signaling (protein, UniProt P12644 293-408, looked up)
Bone morphogenetic protein 4: SPKHHSQRARKKNKNCRRHSLYVDFSDVGWNDWIVAPPGYQAFYCHGDCPFPLADHLNSTNHAIVQTLVNSVNSSIPKACCVPTELSAISMLYLDEYDKVVLKNYQEMVVEGCGCR
Mouse ES cells [3]; 10th day of cultivation, BMP4 25 ng/mL, SAG 300 nM, BIO and DAPT
  number of Cdx2-positive cells, BMP4 added in addition to SAG: improved
Mouse ES cells [3]
  efficiency of differentiation, BMP4 or SAG added besides FGF2: yet more efficiently differentiate

B5: FGF10: FGF10 (R&D Systems), growth factor (protein, UniProt O15520 38-208, looked up)
Fibroblast growth factor 10: QALGQDMVSPEATNSSSSSFSSPSSAGRHVRSYNHLQGDVRWRKLFSFTKYFLKIEKNGKVSGTKKENCPYSILEITSVEIGVVAVKAINSNYYLAMNKKGKLYGSKEFNNDCKLKERIEENGYNTYASFNWQHNGRQMYVALNGKGAPRRGQKTRRKNTSAHFLPMVVHS
[5]
  induction of Cdx2-expressing intestinal cells: induced intestinal differentiation of ES cells, but the levels thereof were lower

B6: FGF4: FGF4 (Peprotech), growth factor (protein, UniProt P08620 31-206, looked up)
Fibroblast growth factor 4: APTAPNGTLEAELERRWESLVALSLARLPVAAQPKEAAVQSGAGDYLLGIKRLRRLYCNVGIGFHLQALPDGRIGGAHADTRDSLLELSPVERGVVSIFGVASRFFVAMSSKGKLYGSPFFTDECTFKEILLPNNYNAYESYKYPGMFIALSKNGKTKKGNRVSPTMKVTHFLPRL
[5]
  induction of Cdx2-expressing intestinal cells: more potent in inducing Cdx2-expressing cells than FGF2 (bFGF)
